Structures are written as SMILES.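 Grown in 96-well plates, cells were treated for 48 hours with each compound at five concentrations. Insufficient inhibition: endpoint recorded as highest concentration tested. Definition used: TGI = concentration required for complete inhibition of growth.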

Some test systems named below: A549 NSCLC; SR leukemia; U251 CNS; RPMI-8226 leukemia; OVCAR-8 ovarian; HS 578T breast; MDA-MB-231 breast; SN12C renal; MDA-N; HOP-62 NSCLC; DU-145 prostate; ACHN renal; NCI-H226 lung; SK-MEL-5 melanoma; HCC-2998 colon; MALME-3M melanoma; HCT-15 colon; MOLT-4 leukemia; A498 renal.
What all share (assay): inhibition of tumour cell growth, NCI panel, 48 h

For `O=S(=O)(Nc1nc2ccccc2nc1Nc1cccc2ccccc12)c1ccccc1`, the TGI was more than 100 µM with A549 NSCLC; more than 100 µM in the assay on SR leukemia; 30 µM in the assay with U251 CNS; more than 100 µM with RPMI-8226 leukemia; more than 100 µM in the assay with OVCAR-8 ovarian; 95.2 µM in the assay on HS 578T breast. The TGI is 43.9 µM with MDA-MB-231 breast; more than 100 µM in the assay on SN12C renal; more than 100 µM in the assay with MDA-N; 33 µM in the assay on HOP-62 NSCLC; more than 100 µM in the assay on DU-145 prostate; more than 100 µM in the assay with ACHN renal. For the same compound, the TGI with NCI-H226 lung, with SK-MEL-5 melanoma, in the assay with HCC-2998 colon and in the assay on MALME-3M melanoma was more than 100 µM throughout.
For the compound `CCCCC1CCCCCCc2[nH]c(/C=C3\N=C(c4ccc[nH]4)C=C3OC)cc21` (centres undefined), the TGI is 1.9 µM in the assay on HCT-15 colon; 0.0354 µM with A549 NSCLC; 0.49 µM in the assay with U251 CNS; 0.226 µM in the assay on RPMI-8226 leukemia; 1.33 µM with OVCAR-8 ovarian; 0.0443 µM in the assay on MOLT-4 leukemia. Further, the TGI in the assay with A498 renal was found to be 1.86 µM; in the assay on HS 578T breast it was 1.62 µM; in the assay with MDA-MB-231 breast, 1.76 µM; in the assay with SN12C renal, 1.32 µM; with MDA-N, 1.35 µM; in the assay with HOP-62 NSCLC it was 0.94 µM. Further, the TGI came out at 3.96 µM in the assay on DU-145 prostate; 1.12 µM in the assay with ACHN renal; 3.27 µM with NCI-H226 lung; 0.107 µM in the assay on SK-MEL-5 melanoma; 1.02 µM in the assay on HCC-2998 colon; 0.689 µM in the assay on MALME-3M melanoma.
For the compound `CC(=O)Oc1c(C)cc2c(c1C)C(C)(C)CN2C(=O)C(C)(C)C`, the TGI in the assay on HCT-15 colon, in the assay with A549 NSCLC, with U251 CNS, in the assay on RPMI-8226 leukemia, in the assay with OVCAR-8 ovarian and in the assay with MOLT-4 leukemia was more than 100 µM each time. The TGI with A498 renal, in the assay with HS 578T breast, with MDA-MB-231 breast, in the assay on SN12C renal, in the assay with MDA-N and in the assay on HOP-62 NSCLC was more than 100 µM each time. Besides, the TGI in the assay with DU-145 prostate, with ACHN renal, in the assay on NCI-H226 lung, with SK-MEL-5 melanoma and in the assay on HCC-2998 colon was more than 100 µM throughout.
Regarding `O=C1c2ccccc2-c2nc(-c3cccs3)cc3c2c1nc1ccccc13`, the TGI in the assay with HCT-15 colon was 57.1 µM; in the assay on A549 NSCLC it was 63.5 µM; with SR leukemia, 34.5 µM; with U251 CNS, more than 100 µM; in the assay on RPMI-8226 leukemia, more than 100 µM; in the assay with OVCAR-8 ovarian, more than 100 µM. Moreover, the TGI was more than 100 µM in the assay with MOLT-4 leukemia; 90 µM with HS 578T breast; more than 100 µM in the assay with MDA-MB-231 breast; more than 100 µM with SN12C renal; 20.4 µM with MDA-N; 77.6 µM in the assay on HOP-62 NSCLC. For the same compound, the TGI is 31 µM in the assay on DU-145 prostate; more than 100 µM in the assay with ACHN renal; more than 100 µM with NCI-H226 lung; 68 µM in the assay with HCC-2998 colon; 23.1 µM in the assay on MALME-3M melanoma.
Take `CCC(C#N)NCc1ccc(CNC(C#N)CC)cc1` (centres undefined): the TGI in the assay with HCT-15 colon, in the assay with A549 NSCLC, in the assay on U251 CNS, in the assay with OVCAR-8 ovarian, in the assay on MOLT-4 leukemia and with A498 renal was more than 100 µM each time. For the same compound, the TGI in the assay with HS 578T breast, in the assay with MDA-MB-231 breast, with SN12C renal, in the assay on MDA-N, with DU-145 prostate and in the assay on ACHN renal was more than 100 µM in each case. In addition, the TGI with NCI-H226 lung, in the assay on SK-MEL-5 melanoma, with HCC-2998 colon and with MALME-3M melanoma was more than 100 µM in each case.
As to `COC1CC(=O)C2C(=O)N(c3ccccc3)C(=O)C23C(C(=O)c2ccccc2)=C(C)NC13O` (centres undefined), the TGI was 23.4 µM with HCT-15 colon; more than 100 µM in the assay with A549 NSCLC; 35.5 µM in the assay with U251 CNS; 21.3 µM with RPMI-8226 leukemia; more than 100 µM in the assay on OVCAR-8 ovarian; 47.7 µM in the assay with A498 renal. The TGI is 57.7 µM in the assay with HS 578T breast; 40 µM in the assay on MDA-MB-231 breast; 37.1 µM in the assay on SN12C renal; 72.2 µM in the assay on MDA-N; 41.9 µM in the assay on HOP-62 NSCLC; 27.8 µM in the assay on DU-145 prostate. The TGI in the assay on ACHN renal was 37.5 µM; with SK-MEL-5 melanoma, 37.4 µM; with MALME-3M melanoma, 9.96 µM.
In the case of `CCOC(=O)C1C(c2ccco2)C2(C#N)C(=N)OC1(C)C2(C#N)C#N` (centres undefined), the TGI with HCT-15 colon, in the assay with A549 NSCLC, with U251 CNS, with RPMI-8226 leukemia, in the assay on OVCAR-8 ovarian and in the assay with MOLT-4 leukemia was more than 100 µM each time. The TGI in the assay with A498 renal, in the assay with HS 578T breast, in the assay on MDA-MB-231 breast, in the assay on SN12C renal, with MDA-N and with DU-145 prostate was more than 100 µM each time. In addition, the TGI in the assay with ACHN renal, in the assay with NCI-H226 lung, with SK-MEL-5 melanoma, with HCC-2998 colon and in the assay with MALME-3M melanoma was more than 100 µM throughout.
As for `Clc1ccc(C2ON=C(c3ccccc3)N2C23CC4CC(CC(C4)C2)C3)cc1Cl` (centres undefined), the TGI with HCT-15 colon, with A549 NSCLC, with U251 CNS, in the assay with RPMI-8226 leukemia, in the assay with OVCAR-8 ovarian and in the assay on MOLT-4 leukemia was more than 10 µM in each case. The TGI in the assay with A498 renal, with HS 578T breast, in the assay on MDA-MB-231 breast, with SN12C renal, in the assay on MDA-N and in the assay with HOP-62 NSCLC was more than 10 µM throughout. Also, the TGI in the assay on DU-145 prostate, in the assay on ACHN renal, in the assay on NCI-H226 lung, in the assay on SK-MEL-5 melanoma, in the assay with HCC-2998 colon and with MALME-3M melanoma was more than 10 µM each time.

Source of the values: PubChem BioAssay (NCI).
